According to patent publication US8710298B2, “Heat stable variants of plant adenosine diphosphate glucose pyrophosphorylase small subunit” (University of Florida Research Foundation, Inc., priority 2003, dated 2014):

Key:
[1] = molecular target: T1, maize endosperm ADP-glucose pyrophosphorylase (AGP), wild type (small subunit BT2 WT-STYL, SEQ ID NO: 2, with wild type large subunit Shrunken-2) (Zea mays, UniProt P55241+Q947C0)
T1 sequence (Q947C0 1-475): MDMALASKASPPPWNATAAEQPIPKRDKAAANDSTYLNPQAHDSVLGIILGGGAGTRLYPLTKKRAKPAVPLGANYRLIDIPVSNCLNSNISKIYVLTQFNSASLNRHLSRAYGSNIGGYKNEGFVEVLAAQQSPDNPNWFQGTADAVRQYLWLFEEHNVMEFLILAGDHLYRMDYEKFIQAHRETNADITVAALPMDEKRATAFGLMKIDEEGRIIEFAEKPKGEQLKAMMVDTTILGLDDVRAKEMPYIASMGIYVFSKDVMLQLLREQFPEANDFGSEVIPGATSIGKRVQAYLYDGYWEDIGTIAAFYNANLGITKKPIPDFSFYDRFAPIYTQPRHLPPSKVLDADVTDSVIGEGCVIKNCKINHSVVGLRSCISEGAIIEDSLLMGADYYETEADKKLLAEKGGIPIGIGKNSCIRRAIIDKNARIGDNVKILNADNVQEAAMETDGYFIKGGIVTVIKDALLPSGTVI
T1 sequence (P55241 46-516): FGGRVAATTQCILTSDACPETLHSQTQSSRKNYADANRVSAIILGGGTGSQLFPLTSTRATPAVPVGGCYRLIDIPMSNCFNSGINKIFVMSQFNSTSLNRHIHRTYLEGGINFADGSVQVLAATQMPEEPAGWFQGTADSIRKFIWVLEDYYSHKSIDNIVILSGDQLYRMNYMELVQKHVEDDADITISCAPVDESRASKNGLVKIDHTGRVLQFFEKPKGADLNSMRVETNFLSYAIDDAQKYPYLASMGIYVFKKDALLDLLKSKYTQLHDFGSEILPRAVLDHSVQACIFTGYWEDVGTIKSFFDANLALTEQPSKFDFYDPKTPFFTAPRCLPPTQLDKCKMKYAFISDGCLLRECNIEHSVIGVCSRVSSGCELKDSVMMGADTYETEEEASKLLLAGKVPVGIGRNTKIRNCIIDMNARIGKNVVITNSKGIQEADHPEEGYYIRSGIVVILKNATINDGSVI
Method: E. coli strain AC70R1-504, which lacks the functional AGP gene and cannot synthesize glycogen, was transformed with both pMoncSh2 and pMoncBt2 (plasmids containing the large and small subunit of wt-AGP respectively). An overnight culture was grown with constant shaking at 225 rpm at 37° C. in LB media containing 75 ug/ml spectinomycin and 50 μg/ml kanamycin. An aliquot of the overnight culture (12.5 ml) was used to inoculate a 1 L flask containing the same media. The 1 L flask was grown until the OD600 reached 0.5-0.6. The cultures were cooled to room temperature and protein expression was induced by the addition of 0.2 mM isopropyl-beta-D-thiogalactoside (IPTG) and 0.02 mg/ml nalidixic acid. Expression continued for 3 hours at room temperature with constant shaking. Cells were centrifuged at 8000×g supernatant removed and stored as pellets at −80° C.
The 3-Phosphoglyceric acid (3-PGA) was added at varying amounts, as specified. When varied, the substrates ranged from 0-5 mM. Reactions were terminated after 5 minutes by boiling in a water bath for 1 minute. […] The change in absorbance between the blank and the reaction was used to calculate the amount to PPi produced for each sample. All reactions were linear with time and enzyme concentration. All assay tubes were pre-warmed to 37° C. prior to assaying and were initiated by the addition of enzyme. […]

[2] = molecular target: T2, maize endosperm ADP-glucose pyrophosphorylase (AGP) variant QTCL (small subunit BT2 with tyrosine 36 to cysteine and glutamine inserted between serine 34 and th (Zea mays, UniProt P55241+Q947C0, INS34Q/Y36C)); experiment: Enzyme kinetics (substrates), forward reaction, purified QTCL AGP; format: biochemical
T2 construct: purified heterotetramer
T2 sequence (Q947C0 with tags, fused parts or gaps INS34Q/Y36C): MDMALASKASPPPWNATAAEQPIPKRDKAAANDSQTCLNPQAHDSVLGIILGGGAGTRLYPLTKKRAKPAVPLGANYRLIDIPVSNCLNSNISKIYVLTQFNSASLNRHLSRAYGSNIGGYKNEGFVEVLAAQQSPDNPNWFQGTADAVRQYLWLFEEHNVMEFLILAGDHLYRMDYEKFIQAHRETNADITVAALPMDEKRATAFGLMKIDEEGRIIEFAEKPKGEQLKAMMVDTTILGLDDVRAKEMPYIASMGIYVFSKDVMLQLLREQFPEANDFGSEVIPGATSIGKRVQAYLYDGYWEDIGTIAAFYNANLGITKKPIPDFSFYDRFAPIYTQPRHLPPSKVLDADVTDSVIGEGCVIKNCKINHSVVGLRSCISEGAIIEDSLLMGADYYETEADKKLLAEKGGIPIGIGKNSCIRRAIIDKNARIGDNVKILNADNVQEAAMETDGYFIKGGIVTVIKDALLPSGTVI
T2 sequence (P55241 46-516): T1 sequence (P55241 46-516)
Method: The QTCL construct (SEQ ID NO:7) encodes a maize AGP small subunit protein (SEQ ID NO:8) having a change from a tyrosine at amino acid position 36 to a cysteine and an insertion of a glutamine between the serine at amino acid position 34 and the threonine at amino acid position 35. […] The mutations were verified by sequence analysis.
(§1) Protein inductions were as described by Greene and Hannah (1998) with a few modifications.
(§2) The 3-Phosphoglyceric acid (3-PGA) was added at varying amounts, as specified. When varied, the substrates ranged from 0-5 mM. Reactions were terminated after 5 minutes by boiling in a water bath for 1 minute. […] The change in absorbance between the blank and the reaction was used to calculate the amount to PPi produced for each sample. All reactions were linear with time and enzyme concentration. All assay tubes were pre-warmed to 37° C. prior to assaying and were initiated by the addition of enzyme.
The QTCL mutant and wild type enzymes were purified from E. coli as described in the materials and methods.

[3] = molecular target: T1, maize endosperm ADP-glucose pyrophosphorylase (AGP), wild type (small subunit BT2 WT-STYL, SEQ ID NO: 2, with wild type large subunit Shrunken-2); settings: effector varied 0-3 mM, 37° C., 10 minutes
Method: as §1, §2
To determine the extent of activation with or with out 3-PGA, 0.1 or 2.0 μg respectively, of purified maize wt-AGP was incubated for 12.5 minutes in the forward assay. To determine the activation constant for the maize wt AGP, 0.2 μg of purified maize wt-AGP was incubated for 12.5 minutes in the forward assay. 3-PGA concentrations ranged from 0-5.0 mM. Curves were fit using Graph Pad Prism using non-linear regression.

[4] = test system: maize endosperm ADP-glucose pyrophosphorylase (AGP) variant QTCL (small subunit BT2 with tyrosine 36 to cysteine and glutamine inserted between serine 34 and …); experiment: Activation and inhibition (Assay C, forward direction), QTCL AGP; format: biochemical, maize (Zea mays); settings: QTCL compared to wild type AGP
Method: (§3) The QTCL construct (SEQ ID NO:7) encodes a maize AGP small subunit protein (SEQ ID NO:8) having a change from a tyrosine at amino acid position 36 to a cysteine and an insertion of a glutamine between the serine at amino acid position 34 and the threonine at amino acid position 35.
as §2

[5] = molecular target: T2, maize endosperm ADP-glucose pyrophosphorylase (AGP) variant QTCL (small subunit BT2 with tyrosine 36 to cysteine and glutamine inserted between serine 34 and th); experiment: as above; format: biochemical; settings: QTCL; effector varied 0-3 mM, 37° C., 10 minutes
Method: as §3, §2

| Compound | Vmax (ATP) ([1]; forward reaction, 10 mM 3-PGA, 37° C., 10 minutes) [µmol/min/mg] | Km ([1]; read-out: Km for ATP, forward reaction, 10 mM 3-PGA, 37° C., 10 minutes) [µM] | Vmax (ATP) ([2]; 10 mM 3-PGA, 37° C., 10 minutes) [µmol/min/mg] | Km ([2]; read-out: Km for ATP, 10 mM 3-PGA, 37° C., 10 minutes) [µM] | Ka (3-PGA) [3] | Ka for the QTCL enzyme, fold higher than wild type AGP [4] | Ka (3-PGA) [5] |
| --- | --- | --- | --- | --- | --- | --- | --- |
| Nc1ncnc2c1ncn2[C@@H]1O[C@H](COP(=O)(O)OP(=O)(O)OP(=O)(O)O)[C@@H](O)[C@H]1O [ATP] | 9.25 ± 0.32 | 66 ± 10 | 23.4 ± 0.53 | 140 ± 10 | – | – | – |
| O=C(O)[C@H](O)COP(=O)(O)O [3-PGA, 3-phosphoglyceric acid] | – | – | – | – | 0.57 ± 0.055 | approximately 2 -fold | 1.08 ± 0.13 |
